Patent publication US11154513B2, “Semifluorinated compounds” (NOVALIQ GMBH, priority 2015, dated 2021)
Where two headings read alike, the source gives them in different places. Values belong to the molecule of their own block, whether it stands above or below them.

Key:
[1] = Evaporation time of 10 μL droplet on glass surface; assay type: physicochemical; details: for effect of increased amount of the compound on evaporation time of the mixture: FIG. 1; for Evaporation time: 10 μL droplet, glass surface, room temperature; for Evaporation time / Relative Evaporation Time: F4H5 / CF3—(CF2)3—CH(CH3)—(CH2)2—CH3 mixtures; for Relative Evaporation Time: relative to Sample 1
Description: The evaporation time of mixtures of the semifluorinated alkane CF3(CF2)3(CH2)4CH3(F4H5) and CF3—(CF2)3—CH(CH3)—(CH2)2—CH3 was evaluated. A droplet of 10 μL volume of each mixture was placed on a glass surface at room temperature. Time until evaporation was recorded by video-monitoring.
The evaporation time of mixtures of the semifluorinated alkane CF3(CF2)5(CH2)7CH3(F6H8) and CF3(CF2)5—CH(CH3)—(CH2)5—CH3 was evaluated analogously.

[2] = Refractive index of the mixtures; assay type: physicochemical; details: mixture with the 1-perfluoroalkylalkane; FIG. 2, FIG. 3
Description: In a particularly preferred embodiment, the refractive index of the liquid solution is in the range of from about 1.30 to about 1.35 at 20° C., as determined by refractometer.
The refractive index of the mixtures was also determined. For topically applied ophthalmic compositions, the refractive index of the composition should preferably be similar, or adapted to that of the eye and lens, for instance as close to that of physiological tear fluid as possible. If the refractive index of a composition is not similar, when applied to the surface of the eye, a patient may experience blurring or impaired vision. It is observed, that the amount of the compound CF3(CF2)5—CH(CH3)—(CH2)5—CH3 or has an effect on refractive index.

[3] = Differential Scanning Calorimetry of mixtures
Description: Differential Scanning Calorimetry (DSC 1, Mettler Toledo, Greifensee, Switzerland) is used to characterize structure and phase behavior of mixtures of CF3(CF2)5—CH(CH3)—(CH2)5—CH3 and CF3(CF2)5(CH2)7CH3. DSC was employed to obtain data on transitions by temperature rising scans with heating rate of 1° C./min. Sealed standard aluminum crucibles (40 μl, Mettler Toledo) were used.

Rabbit corneas = tested on: Rabbit corneas
Description: Anim., 2008 (36) p 25-32; and N. Schrage et al, Graefes Arch Clin Exp Ophthalmol 2012 (250), 1330-1340).
Method. Rabbit corneas were obtained and placed in an artificial anterior ocular chamber which was gently filled with serum-free minimal essential medium (Eagle's MEM) containing Earle's salts and HEPES buffer for nutrition. The medium was constantly replenished by a micropump to imitate the physiological condition of the eye. The culture chambers were held at 32° C. under normal air without supplementary CO2 and >95% relative humidity. Five corneas per test substance (n=5) were used except for the positive control with which two corneas (n=2) were tested.
After 12 h of stabilization in the culture chamber, the corneas were evaluated by microscopy and corneas with intact epithelium and without opacities were selected. Four small abrasions (2.3-4.3 mm^2) were applied to the surface of the selected corneas with a cornea drill. All defects were monitored by fluorescein sodium staining (0.17% aq. solution) and microscopy.
The test substances were administered one hour after induction of the corneal erosion and were applied six times daily onto the apex of the corneas (30-50 μL every four hours). A soft-tipped cannula, with continuous suction was placed on the lowest part of the corneoscleral region within the culturing chamber to remove any excess fluid. Experiments were terminated after 3 days of application. Biomicroscopic images of the corneas were taken daily to document the corneal healing process using a phase-contrast microscope integrated camera (KY-F1030U, JVC, (Bad Vilbel, Del.) mounted on a Z16 APO Microscope (Wetzlar, Del.)). All defects were monitored by fluorescein sodium stains (0.17% aq. solution) with yellow green fluorescence indicating the areas of epithelial defects. Erosion sizes were determined using a software tool of the microscope (DISKUS). At the end of the 3 days, the experiment was terminated and all corneas were fixed in 3.7% formaldehyde and stained with a hematoxylin-eosin dye for microscopic evaluation. To monitor the metabolic activity of the cornea, glucose and lactate concentrations were photometrically quantified in the outflow medium from the artificial anterior chambers.

[4] = DSC heating rate 1° C./min, mixture with CF3(CF2)5(CH2)7CH3

Molecule: CCCCCCC(C)C(F)(F)C(F)(F)C(F)(F)C(F)(F)C(F)(F)C(F)(F)F (stereo not shown) [CF3—(CF2)5—CH(CH3)—(CH2)5—CH3, 2-Perfluorohexyl-octane]
effect of increased amount of the compound on evaporation time of the mixture [1]: significantly decreases the evaporation time
effect of increased content on refractive index of the mixture [2]: increasing refractive index value
effect on melting enthalpy ([3]; presence in a mixture of F6H8): decreased
effect on melting temperature ([3]; presence in a mixture of F6H8): significant reduction

Molecule: benzalkonium chloride [0.01% BAC]
course of induced epithelial lesions (Rabbit corneas): progressive increase of the induced epithelial lesions
Corneal Erosion Size, Mean (Rabbit corneas; Day 0): 11.57 mm^2
Corneal Erosion Size, Mean (Rabbit corneas; Day 1, applied six times daily 30-50 μL): 5.91 mm^2
Corneal Erosion Size, Mean (Rabbit corneas; Day 2, applied six times daily 30-50 μL): 8.74 mm^2
Corneal Erosion Size, Mean (Rabbit corneas; Day 3, applied six times daily 30-50 μL): 17.46 mm^2

Molecule: CCCCCC(F)(F)C(F)(F)C(F)(F)C(F)(F)F [Sample 1, CF3(CF2)3(CH2)4CH3]
Evaporation time [1]: 304 s
Relative Evaporation Time [1]: 1.00

Molecule: CCCC(C)C(F)(F)C(F)(F)C(F)(F)C(F)(F)F (stereo not shown) [CF3—(CF2)3—CH(CH3)—(CH2)2—CH3, 2-Perfluorobutyl-pentane]
effect of increased amount of the compound on evaporation time of the mixture [1]: increase the evaporation time
effect of increased content on refractive index of the mixture [2]: increasing refractive index value

Molecule: CCCC(C)C(F)(F)C(F)(F)C(F)(F)C(F)(F)F (stereo not shown) [Sample 3, CF3—(CF2)3—CH(CH3)—(CH2)2—CH3]
Evaporation time [1]: 322 s
Relative Evaporation Time [1]: 1.064

Low temperature transition Endset [3, 4]: −38.32 °C
Low temperature transition Onset [3, 4]: −45.47 °C
Low temperature transition Peak [3, 4]: −40.37 °C
Low temperature transition ΔH [3, 4]: -0.69 J/g
Molecule: CF3(CF2)5(CH2)7CH3 [0 wt % CF3—(CF2)5—CH(CH3)—(CH2)5—CH3]
